Assay results published in ChEMBL document CHEMBL1126992, “The synthesis and biochemical evaluation of new A1 selective adenosine receptor agonists containing 6-hydrazinopurine moieties” (Bioorg Med Chem Lett, 1993).

Legend:
[1] = target: T1, Adenosine receptor A1 (Rattus norvegicus, UniProt P25099); experiment: Tested for inhibition of adenosine A1 receptor binding to rat brain
T1 sequence (P25099 whole entry): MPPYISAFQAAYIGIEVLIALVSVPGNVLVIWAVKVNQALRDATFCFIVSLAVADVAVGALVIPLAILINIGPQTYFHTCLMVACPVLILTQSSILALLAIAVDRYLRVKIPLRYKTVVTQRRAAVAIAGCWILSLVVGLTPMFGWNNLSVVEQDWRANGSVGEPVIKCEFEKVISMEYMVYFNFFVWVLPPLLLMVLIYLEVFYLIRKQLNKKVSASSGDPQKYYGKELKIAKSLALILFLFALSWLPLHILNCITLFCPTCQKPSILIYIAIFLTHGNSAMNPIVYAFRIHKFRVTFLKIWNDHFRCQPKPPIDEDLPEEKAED

[2] = target: Adenosine A2 receptor (Rattus norvegicus, UniProt P29276+P30543); experiment: Tested for inhibition of adenosine A2 receptor binding to rat brain
[3] = Partition coefficient (logP); assay type: physicochemical; settings: octanol/water
[4] = species: Cavia porcellus; experiment: Tested for agonistic potency to inhibit stimulated cAMP accumulation in isolated guinea pig heart; assay type: functional
[5] = species: Cavia porcellus; experiment: Tested for agonistic potency to inhibit contractile force in isolated guinea pig atria; assay type: functional

Row | SMILES | Ki [1] | Ki [2] | logP [3] | IC50 [4] | IC50 [5]
1 | OC[C@H]1O[C@@H](n2cnc3c(NN4CCN(c5ccccc5)CC4)nc(Cl)nc32)[C@H](O)[C@@H]1O | 55 nM | 5571 nM | 1.42 | – | –
2 | CCCOc1nc(NN2CCCCC2)c2ncn([C@@H]3O[C@H](CO)[C@@H](O)[C@H]3O)c2n1 | 400 nM | 2700 nM | – | – | –
3 | OC[C@H]1O[C@@H](n2cnc3c(NN4CCCCC4c4ccccc4)nc(Cl)nc32)[C@H](O)[C@@H]1O (stereo partly drawn) | 34 nM | 17 nM | 2.25 | – | –
4 | OC[C@H]1O[C@@H](n2cnc3c(NN4CCC(c5ccccc5)CC4)nc(Cl)nc32)[C@H](O)[C@@H]1O | 11 nM | 1200 nM | 2.36 | 2.5 nM | 320 nM
5 | OC[C@H]1O[C@@H](n2cnc3c(NN4CCCC(Sc5ccccc5)C4)nc(Cl)nc32)[C@H](O)[C@@H]1O (mixture of isomers) | 13 nM | 1380 nM | 2.89 | – | –
6 | CSc1nc(NN2CCCCC2)c2ncn([C@@H]3O[C@H](CO)[C@@H](O)[C@H]3O)c2n1 | 390 nM | 2825 nM | 0.89 | – | –
7 | O=S(=O)(c1ccccc1)C1CCN(Nc2nc(Cl)nc3c2ncn3[C@@H]2O[C@H](CO)[C@@H](O)[C@H]2O)CC1 | 17 nM | 220 nM | – | 0.7 nM | 320 nM
8 | OC[C@H]1O[C@@H](n2cnc3c(NN4CCCCC4)ncnc32)[C@H](O)[C@@H]1O | > 3000 nM | > 10000 nM | 1.28 | – | –
9 | OC[C@H]1O[C@@H](n2cnc3c(NN4CCCC4)nc(I)nc32)[C@H](O)[C@@H]1O | 13000 nM | 57000 nM | 1.42 | – | –
10 | OC[C@H]1O[C@@H](n2cnc3c(NN4CCOCC4)nc(Cl)nc32)[C@H](O)[C@@H]1O | 13.3 nM | 1040 nM | 0.11 | – | –
11 | OC[C@H]1O[C@@H](n2cnc3c(NN4CCCC(O)C4)nc(Cl)nc32)[C@H](O)[C@@H]1O (mixture of isomers) | 11 nM | 720 nM | -0.82 | 4.6 nM | 470 nM
12 | OC[C@H]1O[C@@H](n2cnc3c(NN4CCCC(Oc5ccccc5)C4)nc(Cl)nc32)[C@H](O)[C@@H]1O (mixture of isomers) | 15 nM | 1733 nM | 1.88 | 4.8 nM | 4500 nM
13 | CN1CCN(Nc2nc(Cl)nc3c2ncn3[C@@H]2O[C@H](CO)[C@@H](O)[C@H]2O)CC1 | 184 nM | > 30000 nM | 0.11 | – | –
14 | Nc1nc(NN2CCCCC2)c2ncn([C@@H]3O[C@H](CO)[C@@H](O)[C@H]3O)c2n1 | 30 nM | 3320 nM | -0.55 | – | –
15 | OC[C@H]1O[C@@H](n2cnc3c(NC4CCCC4)nc(Cl)nc32)[C@H](O)[C@@H]1O | – | – | 2.07 | – | –
16 | OC[C@H]1O[C@@H](n2cnc3c(NC4CCCC4)ncnc32)[C@H](O)[C@@H]1O [N6-CYCLOPENTYLADENOSINE] | – | 321 nM | 0.72 | 0.6 nM | 420 nM

Further lines, results first:

Row | Ki [1] | Ki [2] | logP [3] | IC50 [4] | IC50 [5] | SMILES
17 | 4 nM | 33 nM | 1.38 | – | – | CC1CCCC(C)N1Nc1nc(Cl)nc2c1ncn2[C@@H]1O[C@H](CO)[C@@H](O)[C@H]1O (stereo partly drawn)
18 | 3.6 nM | 1050 nM | 0.35 | 3.8 nM | 1290 nM | OC[C@H]1O[C@@H](n2cnc3c(NN4CCCCC4)nc(F)nc32)[C@H](O)[C@@H]1O
19 | 0.9 nM | 470 nM | 2.62 | 0.3 nM | 640 nM | OC[C@H]1O[C@@H](n2cnc3c(NN4CCC(Sc5ccccc5)CC4)nc(Cl)nc32)[C@H](O)[C@@H]1O
20 | 9.3 nM | 1130 nM | 1.42 | – | – | OC[C@H]1O[C@@H](n2cnc3c(NN4CCCCCC4)nc(Cl)nc32)[C@H](O)[C@@H]1O
21 | 6.1 nM | 638 nM | 2.28 | 1.1 nM | 2900 nM | OC[C@H]1O[C@@H](n2cnc3c(NN4CC=C(c5ccccc5)CC4)nc(Cl)nc32)[C@H](O)[C@@H]1O
22 | 9.3 nM | 1520 nM | 0.89 | – | – | OC[C@H]1O[C@@H](n2cnc3c(NN4CCCCC4)nc(Br)nc32)[C@H](O)[C@@H]1O
23 | 1.4 nM | 1100 nM | 2.05 | 0.03 nM | 190 nM | OC[C@H]1O[C@@H](n2cnc3c(NN4CCC(Oc5ccccc5)CC4)nc(Cl)nc32)[C@H](O)[C@@H]1O
24 | 9.9 nM | 564 nM | 0.32 | – | – | COC[C@@H]1CCCN1Nc1nc(Cl)nc2c1ncn2[C@@H]1O[C@H](CO)[C@@H](O)[C@H]1O
25 | 4.2 nM | 1485 nM | 0.79 | 2.1 nM | 580 nM | OC[C@H]1O[C@@H](n2cnc3c(NN4CCCCC4)nc(Cl)nc32)[C@H](O)[C@@H]1O
26 | 10.9 nM | 459 nM | 0.32 | – | – | COC[C@H]1CCCN1Nc1nc(Cl)nc2c1ncn2[C@@H]1O[C@H](CO)[C@@H](O)[C@H]1O
